# Assay results as given in ChEMBL document CHEMBL1148527, “Structure-based design of spiro-oxindoles as potent, specific small-molecule inhibitors of the MDM2-p53 interaction” (J Med Chem, 2006).
# Legend:
# [1] = target: Bcl-2-like protein 1 (Homo sapiens, UniProt Q07817); experiment: Displacement of Flu-Bid from human recombinant Bcl-xL receptor
# [2] = target: Apoptosis regulator Bcl-2 (Homo sapiens, UniProt P10415); experiment: Displacement of Flu-Bid from human recombinant Bcl2 receptor
# Chain of Apoptosis regulator Bcl-2 (P10415 whole entry): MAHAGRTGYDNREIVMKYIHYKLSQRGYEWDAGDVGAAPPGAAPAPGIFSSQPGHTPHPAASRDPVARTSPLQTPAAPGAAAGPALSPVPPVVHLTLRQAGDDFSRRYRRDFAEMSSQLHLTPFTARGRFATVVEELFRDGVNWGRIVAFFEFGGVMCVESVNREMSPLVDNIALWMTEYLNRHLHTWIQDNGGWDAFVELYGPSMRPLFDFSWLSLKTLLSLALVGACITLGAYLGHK
# Chain of Bcl-2-like protein 1 (Q07817 whole entry): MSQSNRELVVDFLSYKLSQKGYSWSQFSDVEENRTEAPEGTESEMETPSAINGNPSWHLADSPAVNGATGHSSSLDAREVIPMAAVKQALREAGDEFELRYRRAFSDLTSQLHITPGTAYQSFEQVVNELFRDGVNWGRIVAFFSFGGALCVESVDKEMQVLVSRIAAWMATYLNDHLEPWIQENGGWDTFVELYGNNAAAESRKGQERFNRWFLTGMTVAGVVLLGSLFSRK
compound,measurement,setting,value
CC(C)(C)C[C@H]1N[C@@H](C(=O)NCCN2CCOCC2)[C@H](c2cccc(Cl)c2F)[C@@]12C(=O)Nc1cc(Cl)ccc12,IC50,[1],> 50 µM
same,IC50,[2],> 50 µM
